According to patent publication US20260138988A1, “Spiropyrrolidine Derived Antiviral Agents” (Enanta Pharmaceuticals, Inc., priority 2021, published 2026):

target: SARS-CoV-2 3CL-protease (Severe acute respiratory syndrome coronavirus 2, UniProt P0DTD1); experiment: SARS-CoV-2 3C-Like (3CL) Protease Fluorescence Assay (FRET); assay type: biochemical; conditions: SARS-CoV-2 3CL-protease 10 nM, test compounds 0-10 μM, duplicate, read-out: IC50

Row | Compound | IC50
1 | C[C@H](NC(=O)c1cc(F)c(F)c(F)c1)C(=O)N(C)[C@@H](CC(C)(C)C)C(=O)N1C[C@]2(C[C@H]1C#N)C(=O)Nc1ccccc12 [Example 214] | < 100 nM
2 | C[C@H](NC(=O)c1cccc2cc(F)ccc12)C(=O)N(C)[C@@H](CC(C)(C)C)C(=O)N1C[C@]2(C[C@H]1C#N)C(=O)Nc1ccccc12 [Example 215] | < 100 nM
3 | C[C@H](NC(=O)c1ccc(OC2CC2)c(OC2CC2)c1)C(=O)N(C)[C@@H](CC(C)(C)C)C(=O)N1C[C@]2(C[C@H]1C#N)C(=O)Nc1ccccc12 [Example 216] | < 100 nM
4 | CC(C)C[C@@H](C(=O)N1C[C@]2(C[C@H]1C#N)C(=O)Nc1ccccc12)N(C)C(=O)[C@H](C)NC(=O)C(C)C [Example 217] | < 100 nM
5 | C[C@H](NC(=O)c1ccc(F)cc1)C(=O)N[C@@H](CC(C)(C)C)C(=O)N1C[C@]2(C[C@H]1C#N)C(=O)Nc1ccccc12 [Example 218] | < 100 nM
6 | C[C@H](NC(=O)C(C)(C)C)C(=O)N[C@@H](CC(C)(C)C)C(=O)N1C[C@]2(C[C@H]1C#N)C(=O)Nc1ccccc12 [Example 219] | < 100 nM
7 | C[C@H](NC(=O)c1cc(F)c2nn(C3CC3)cc2c1)C(=O)N(C)[C@@H](CC(C)(C)C)C(=O)N1C[C@]2(C[C@H]1C#N)C(=O)Nc1ccccc12 [Example 220] | < 100 nM
8 | C[C@H](NC(=O)c1cnn(-c2ccc(C(F)(F)F)cc2)c1)C(=O)N(C)[C@@H](CC(C)(C)C)C(=O)N1C[C@]2(C[C@H]1C#N)C(=O)Nc1ccccc12 [Example 221] | < 100 nM
9 | C[C@H](NC(=O)C(F)(F)F)C(=O)N[C@@H](CC(C)(C)C)C(=O)N1C[C@]2(C[C@H]1C#N)C(=O)Nc1ccccc12 [Example 222] | < 100 nM
10 | CC(C)C(=O)N[C@@H](C)C(=O)N[C@@H](CC(C)(C)C)C(=O)N1C[C@]2(C[C@H]1C#N)C(=O)Nc1ccccc12 [Example 223] | < 100 nM
11 | C[C@H](NC(=O)c1ccc(F)cc1)C(=O)N(C)[C@@H](CC(C)(C)C)C(=O)N1C[C@]2(C[C@H]1C#N)C(=O)Nc1ccccc12 [Example 224] | < 100 nM
12 | CC(C)(C)C[C@H](NC(=O)c1ccc(F)cc1)C(=O)N[C@@H](CC(C)(C)C)C(=O)N1C[C@]2(C[C@H]1C#N)C(=O)Nc1ccccc12 [Example 225] | < 100 nM
13 | CC(C)(C)C[C@H](NC(=O)C(F)(F)F)C(=O)N[C@@H](CC(C)(C)C)C(=O)N1C[C@]2(C[C@H]1C#N)C(=O)Nc1ccccc12 [Example 226] | < 100 nM
14 | C[C@H](NC(=O)OCc1ccccc1)C(=O)N[C@@H](CC(C)(C)C)C(=O)N1C[C@]2(C[C@H]1C#N)C(=O)Nc1ccccc12 [Example 227] | < 100 nM
15 | CN(C(=O)[C@@H]1CC[C@@H](C2CC2)N1)[C@@H](CC(C)(C)C)C(=O)N1C[C@]2(C[C@H]1C#N)C(=O)Nc1ccccc12 [Example 228] | < 100 nM
16 | CN(C(=O)[C@@H]1C[C@@H](C(F)(F)F)CN1)[C@@H](CC(C)(C)C)C(=O)N1C[C@]2(C[C@H]1C#N)C(=O)Nc1ccccc12 [Example 229] | < 100 nM
17 | CN1C[C@H](C(F)(F)F)C[C@H]1C(=O)N(C)[C@@H](CC(C)(C)C)C(=O)N1C[C@]2(C[C@H]1C#N)C(=O)Nc1ccccc12 [Example 230] | 100 to 1000 nM
18 | CN(C(=O)[C@@H]1C[C@H](c2ccccc2)CN1)[C@@H](CC(C)(C)C)C(=O)N1C[C@]2(C[C@H]1C#N)C(=O)Nc1ccccc12 [Example 231] | < 100 nM
19 | CN(C(=O)[C@@H]1C[C@@H](c2ccccc2)CN1)[C@@H](CC(C)(C)C)C(=O)N1C[C@]2(C[C@H]1C#N)C(=O)Nc1ccccc12 [Example 232] | < 100 nM
20 | CN(C(=O)[C@@H]1CC[C@@H](C(F)(F)F)N1)[C@@H](CC(C)(C)C)C(=O)N1C[C@]2(C[C@H]1C#N)C(=O)Nc1ccccc12 [Example 233] | < 100 nM
21 | CN(C(=O)[C@@H]1CC[C@H](C(F)(F)F)N1C)[C@@H](CC(C)(C)C)C(=O)N1C[C@]2(C[C@H]1C#N)C(=O)Nc1ccccc12 [Example 234] | < 100 nM
22 | CC(C)N1[C@H](C(=O)N(C)[C@@H](CC(C)(C)C)C(=O)N2C[C@]3(C[C@H]2C#N)C(=O)Nc2ccccc23)CC[C@@H]1C(F)(F)F [Example 235] | 100 to 1000 nM
23 | CC(C)N1[C@H](C(F)(F)F)CC[C@H]1C(=O)N(C)[C@@H](CC(C)(C)C)C(=O)N1C[C@]2(C[C@H]1C#N)C(=O)Nc1ccccc12 [Example 236] | 100 to 1000 nM
24 | CC(C)C[C@@H](C(=O)N1C[C@]2(C[C@H]1C#N)C(=O)Nc1ccccc12)N(C)C(=O)[C@H]1CC[C@H](c2ccc(F)cc2)N1C(C)C [Example 237] | < 100 nM
25 | CC(C)C[C@@H](C(=O)N1C[C@]2(C[C@H]1C#N)C(=O)Nc1ccccc12)N(C)C(=O)[C@@H]1CC[C@@H](c2ccc(F)cc2)N1C(C)C [Example 238] | < 100 nM
26 | C[C@@H]1CC[C@@H](C(=O)N(C)[C@@H](CC(C)(C)C)C(=O)N2C[C@]3(C[C@H]2C#N)C(=O)Nc2ccccc23)N1C [Example 239] | < 100 nM
27 | CCN1[C@H](C(=O)N(C)[C@@H](CC(C)C)C(=O)N2C[C@]3(C[C@H]2C#N)C(=O)Nc2ccccc23)CCC1(C)C [Example 240] | < 100 nM
28 | CC(C)C[C@@H](C(=O)N1C[C@]2(C[C@H]1C#N)C(=O)Nc1ccccc12)N(C)C(=O)[C@@H]1CC2(CC2)CN1C(C)C [Example 241] | < 100 nM

Row | Compound | IC50
29 | C[C@H](NC(=O)/C=C/c1ccc(F)cc1)C(=O)N(C)[C@@H](CC(C)(C)C)C(=O)N1C[C@]2(C[C@H]1C#N)C(=O)Nc1ccccc12 [Example 242] | < 100 nM
30 | C[C@H](NC(=O)C(F)(F)Cc1ccc(F)cc1)C(=O)N(C)[C@@H](CC(C)(C)C)C(=O)N1C[C@]2(C[C@H]1C#N)C(=O)Nc1ccccc12 [Example 243] | < 100 nM
31 | C[C@H](NC(=O)C(F)(F)CCc1ccccc1)C(=O)N(C)[C@@H](CC(C)(C)C)C(=O)N1C[C@]2(C[C@H]1C#N)C(=O)Nc1ccccc12 [Example 244] | < 100 nM
32 | CC(C)(C)C[C@H](NC(=O)[C@@H](NC(=O)C(F)(F)F)c1ccccc1)C(=O)N1C[C@]2(C[C@H]1C#N)C(=O)Nc1ccccc12 [Example 245] | < 100 nM
33 | CC(C)(C)C[C@H](NC(=O)[C@@H](NC(=O)C1CCC1)c1ccccc1)C(=O)N1C[C@]2(C[C@H]1C#N)C(=O)Nc1ccccc12 [Example 246] | < 100 nM
34 | CC(C)(C)C[C@H](NC(=O)[C@@H](NC(=O)c1ccc(F)cc1)c1ccccc1)C(=O)N1C[C@]2(C[C@H]1C#N)C(=O)Nc1ccccc12 [Example 247] | < 100 nM
35 | CC(C)(C)C[C@H](NC(=O)[C@@H](NC(=O)C1(c2ccccc2)CC1)c1ccccc1)C(=O)N1C[C@]2(C[C@H]1C#N)C(=O)Nc1ccccc12 [Example 248] | < 100 nM
36 | CC(C)(C)C[C@H](NC(=O)[C@@H](NC(=O)C(F)(F)c1ccccc1)c1ccccc1)C(=O)N1C[C@]2(C[C@H]1C#N)C(=O)Nc1ccccc12 [Example 249] | < 100 nM
37 | CC(C)C[C@H](NC(=O)OC1CCC1)C(=O)N[C@@H](CC(C)(C)C)C(=O)N1C[C@]2(C[C@H]1C#N)C(=O)Nc1ccccc12 [Example 250] | < 100 nM
38 | CC(C)C[C@@H](C(=O)N1C[C@]2(C[C@H]1C#N)C(=O)Nc1ccccc12)N(C)C(=O)[C@@H]1[C@@H]2C[C@@H]2CN1C(C)C [Example 251] | 100 to 1000 nM
39 | CC(C)C[C@@H](C(=O)N1C[C@]2(C[C@H]1C#N)C(=O)Nc1ccccc12)N(C)C(=O)[C@@H]1[C@@H]2C[C@@H]2CN1C1CC1 [Example 252] | 100 to 1000 nM
40 | CC(C)C[C@@H](C(=O)N1C[C@]2(C[C@H]1C#N)C(=O)Nc1ccccc12)N(C)C(=O)[C@@H]1[C@@H]2C[C@@H]2CN1C [Example 253] | 100 to 1000 nM
41 | CCN1C[C@H]2C[C@H]2[C@H]1C(=O)N(C)[C@@H](CC(C)C)C(=O)N1C[C@]2(C[C@H]1C#N)C(=O)Nc1ccccc12 [Example 254] | 100 to 1000 nM
42 | CC(C)C[C@@H](C(=O)N1C[C@]2(C[C@H]1C#N)C(=O)Nc1ccccc12)N(C)C(=O)[C@@H]1CC2(CCCC2)CN1C(C)C [Example 255] | < 100 nM
43 | CC(C)C[C@@H](C(=O)N1C[C@]2(C[C@H]1C#N)C(=O)Nc1ccccc12)N(C)C(=O)[C@@H]1CC2(CCCC2)CN1C1CC1 [Example 256] | < 100 nM
44 | CCN1CC2(CCCC2)C[C@H]1C(=O)N(C)[C@@H](CC(C)C)C(=O)N1C[C@]2(C[C@H]1C#N)C(=O)Nc1ccccc12 [Example 257] | < 100 nM
45 | CC(C)C[C@@H](C(=O)N1C[C@]2(C[C@H]1C#N)C(=O)Nc1ccccc12)N(C)C(=O)[C@@H]1C[C@H]2C[C@H]2N1C1CC1 [Example 258] | < 100 nM
46 | CC(C)C[C@@H](C(=O)N1C[C@]2(C[C@H]1C#N)C(=O)Nc1ccccc12)N(C)C(=O)[C@@H]1C[C@H]2C[C@H]2N1C [Example 260] | < 100 nM
47 | CCN1[C@@H]2C[C@@H]2C[C@H]1C(=O)N(C)[C@@H](CC(C)C)C(=O)N1C[C@]2(C[C@H]1C#N)C(=O)Nc1ccccc12 [Example 261] | < 100 nM
48 | COCCC(=O)N[C@@H](C)C(=O)N(C)[C@@H](CC(C)(C)C)C(=O)N1C[C@]2(C[C@H]1C#N)C(=O)Nc1ccccc12 [Example 262] | < 100 nM
49 | COCCOCCC(=O)N[C@@H](C)C(=O)N(C)[C@@H](CC(C)(C)C)C(=O)N1C[C@]2(C[C@H]1C#N)C(=O)Nc1ccccc12 [Example 263] | < 100 nM
50 | C[C@H](NC(=O)CCCC(F)(F)F)C(=O)N(C)[C@@H](CC(C)(C)C)C(=O)N1C[C@]2(C[C@H]1C#N)C(=O)Nc1ccccc12 [Example 264] | < 100 nM
51 | CC(C)C[C@@H](C(=O)N1C[C@]2(C[C@H]1C#N)C(=O)Nc1ccccc12)N(C)C(=O)[C@H](C)NC(=O)C1CC1(C)C (stereo partly shown) [Example 265] | < 100 nM
52 | CC(C)C[C@@H](C(=O)N1C[C@]2(C[C@H]1C#N)C(=O)Nc1ccccc12)N(C)C(=O)[C@H](C)NC(=O)CC(F)(F)F [Example 266] | < 100 nM
53 | C[C@H](NC(=O)C(F)(F)F)C(=O)N(C)[C@@H](Cc1ccccc1)C(=O)N1C[C@]2(C[C@H]1C#N)C(=O)Nc1ccccc12 [Example 267] | < 100 nM
54 | C[C@H](NC(=O)C(F)(F)C(F)(F)F)C(=O)N(C)[C@@H](Cc1ccccc1)C(=O)N1C[C@]2(C[C@H]1C#N)C(=O)Nc1ccccc12 [Example 268] | < 100 nM
55 | C[C@H](NC(=O)C(C)(F)F)C(=O)N(C)[C@@H](Cc1ccccc1)C(=O)N1C[C@]2(C[C@H]1C#N)C(=O)Nc1ccccc12 [Example 269] | < 100 nM
